According to PubChem BioAssay (NCI):
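Grown in 96-well plates, cells were treated for 48 hours with each compound at five concentrations. Insufficient inhibition: endpoint recorded as highest concentration tested. Definition used: TGI = concentration required for complete inhibition of growth.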

Assays:
Assay in all cases: NCI anticancer screen, dose series, 48 h
A549 NSCLC = tested on: A549 NSCLC
786-0 renal = tested on: 786-0 renal
UACC-62 melanoma = tested on: UACC-62 melanoma
HCT-15 colon = tested on: HCT-15 colon
SW-620 colon = tested on: SW-620 colon
SR leukemia = tested on: SR leukemia
MOLT-4 leukemia = tested on: MOLT-4 leukemia
SK-MEL-2 melanoma = tested on: SK-MEL-2 melanoma
SNB-75 CNS = tested on: SNB-75 CNS
HOP-92 NSCLC = tested on: HOP-92 NSCLC
CCRF-CEM leukemia = tested on: CCRF-CEM leukemia
RPMI-8226 leukemia = tested on: RPMI-8226 leukemia
HT29 colon = tested on: HT29 colon
SF-295 CNS = tested on: SF-295 CNS
OVCAR-4 ovarian = tested on: OVCAR-4 ovarian
HOP-62 NSCLC = tested on: HOP-62 NSCLC
KM20L2 colon = tested on: KM20L2 colon
A498 renal = tested on: A498 renal
U251 CNS = tested on: U251 CNS
COLO 205 colon = tested on: COLO 205 colon
NCI-H226 lung = tested on: NCI-H226 lung
SF-539 CNS = tested on: SF-539 CNS
CAKI-1 renal = tested on: CAKI-1 renal
K-562 leukemia = tested on: K-562 leukemia
UACC-257 melanoma = tested on: UACC-257 melanoma
SNB-19 CNS = tested on: SNB-19 CNS
NCI-H522 lung = tested on: NCI-H522 lung
M14 melanoma = tested on: M14 melanoma
LXFL 529 NSCLC = tested on: LXFL 529 NSCLC
LOX IMVI melanoma = tested on: LOX IMVI melanoma
SN12C renal = tested on: SN12C renal
SK-OV-3 ovarian = tested on: SK-OV-3 ovarian
SF-268 CNS = tested on: SF-268 CNS
SNB-78 CNS = tested on: SNB-78 CNS
UO-31 renal = tested on: UO-31 renal
XF 498 CNS = tested on: XF 498 CNS
NCI-H460 lung = tested on: NCI-H460 lung
SK-MEL-5 melanoma = tested on: SK-MEL-5 melanoma
HCT-116 colon = tested on: HCT-116 colon
NCI-H23 lung = tested on: NCI-H23 lung
RXF-631 renal = tested on: RXF-631 renal
KM12 colon = tested on: KM12 colon
RXF 393 renal = tested on: RXF 393 renal
TK-10 renal = tested on: TK-10 renal
IGROV1 ovarian = tested on: IGROV1 ovarian
OVCAR-8 ovarian = tested on: OVCAR-8 ovarian
OVCAR-5 ovarian = tested on: OVCAR-5 ovarian
HL-60(TB) leukemia = tested on: HL-60(TB) leukemia
OVCAR-3 ovarian = tested on: OVCAR-3 ovarian
EKVX NSCLC = tested on: EKVX NSCLC
DMS 273 small cell lung = tested on: DMS 273 small cell lung
SK-MEL-28 melanoma = tested on: SK-MEL-28 melanoma
ACHN renal = tested on: ACHN renal

CCCCCCCCCCCc1noc2c1C(=O)C(O)CC2 (stereo not drawn)
TGI (A549 NSCLC): 55 µM | TGI (786-0 renal): 34.1 µM | TGI (UACC-62 melanoma): 33.8 µM | TGI (HCT-15 colon): 43.7 µM | TGI (SW-620 colon): 35.6 µM | TGI (SR leukemia): 78 µM | TGI (MOLT-4 leukemia): 65.7 µM | TGI (SK-MEL-2 melanoma): 38.7 µM | TGI (SNB-75 CNS): 84.5 µM | TGI (HOP-92 NSCLC): 42.8 µM | TGI (CCRF-CEM leukemia): 64.9 µM | TGI (RPMI-8226 leukemia): 67.7 µM | TGI (HT29 colon): 33.2 µM | TGI (SF-295 CNS): 39.6 µM | TGI (OVCAR-4 ovarian): 33 µM | TGI (HOP-62 NSCLC): > 100 µM | TGI (KM20L2 colon): 31.8 µM | TGI (A498 renal): 88.5 µM | TGI (U251 CNS): 28.3 µM | TGI (COLO 205 colon): 83 µM | TGI (NCI-H226 lung): 35.9 µM | TGI (SF-539 CNS): 54.7 µM | TGI (CAKI-1 renal): > 100 µM | TGI (K-562 leukemia): 42.8 µM | TGI (UACC-257 melanoma): 42.3 µM | TGI (SNB-19 CNS): 67.2 µM | TGI (NCI-H522 lung): 40 µM | TGI (M14 melanoma): 94.6 µM | TGI (LXFL 529 NSCLC): 33.1 µM | TGI (LOX IMVI melanoma): 34.4 µM | TGI (SN12C renal): 30.4 µM | TGI (SK-OV-3 ovarian): 94.8 µM | TGI (SF-268 CNS): > 100 µM | TGI (SNB-78 CNS): 65.1 µM | TGI (UO-31 renal): 71.2 µM | TGI (XF 498 CNS): 27 µM | TGI (NCI-H460 lung): 37.7 µM | TGI (SK-MEL-5 melanoma): 30.2 µM | TGI (HCT-116 colon): 41.6 µM | TGI (NCI-H23 lung): 31.9 µM | TGI (RXF-631 renal): 36.7 µM | TGI (KM12 colon): 57.1 µM | TGI (RXF 393 renal): 27.5 µM | TGI (TK-10 renal): > 100 µM | TGI (IGROV1 ovarian): > 100 µM | TGI (OVCAR-8 ovarian): 35.8 µM | TGI (OVCAR-5 ovarian): 42.6 µM | TGI (HL-60(TB) leukemia): 65.5 µM | TGI (OVCAR-3 ovarian): 34.3 µM | TGI (EKVX NSCLC): > 100 µM | TGI (DMS 273 small cell lung): 30.4 µM | TGI (SK-MEL-28 melanoma): 75.2 µM | TGI (ACHN renal): > 100 µM
